Assays:
[1] = test system: Pseudomonas aeruginosa PAO1 or ATCC 27853; test: MIC, broth dilution (CA-SFM); format: cell-based; conditions: mean (n = 3)
[2] = test system: Klebsiella pneumoniae ATCC700603; test: MIC, CO-ADD broth microdilution; format: cell-based; conditions: mean (n = 2)
[3] = test system: Escherichia coli ATCC 25922; test: MIC, CO-ADD broth microdilution; format: cell-based; conditions: ATCC25922, mean (n = 2)
MRSA ATCC 43300 = test: MIC, CO-ADD broth microdilution; format: cell-based, Staphylococcus aureus; conditions: Staphylococcus aureus; MRSA ATCC 43300; mean (n = 2); read-out: MIC MRSA
[4] = test system: Cryptococcus neoformans ATCC208821; test: Antifungal MIC, CO-ADD; format: cell-based
Method: (§1) For the antifungal assay, fungi strains were cultured for 3 days on YPD agar at 30 °C. A yeast suspension of 1 × 10^6 to 5 × 10^6 CFU/mL was prepared from five colonies. These stock suspensions were diluted with yeast nitrogen base (YNB) (Becton Dickinson, 233520) broth to a final concentration of 2.5 × 10^3 CFU/mL. […] Plates were covered and incubated at 35 °C for 36 h without shaking. C. albicans MICs were determined by measuring the absorbance at OD530. […] Fluconazole was used as a positive fungal inhibitor standard for C. albicans and C. neoformans. […] Quality control (QC) of the assays was determined by antimicrobial controls and Z’-factor (using positive and negative controls).

[5] = test system: Candida albicans ATCC90028; test: Antifungal MIC, CO-ADD; format: cell-based; conditions: mean (n = 2)
Method: as §1

[6] = test system: Acinetobacter baumannii ATCC19606; test: MIC, CO-ADD broth microdilution; format: cell-based; conditions: mean (n = 2)
human red blood cells = test: Hemolytic assay; format: cell-based; conditions: mean (n = 2)
Method: Human whole blood was washed three times with 3 volumes of 0.9% NaCl and then resuspended in same to a concentration of 0.5 × 10^8 cells/mL, as determined by manual cell count in a Neubauer hemocytometer. The washed cells were then added to the 384-well compound-containing plates for a final volume of 50 μL. After a 10 min shake on a plate shaker, the plates were then incubated for 1 h at 37 °C. After incubation, the plates were centrifuged at 1000× g for 10 min to pellet cells and debris; 25 μL of the supernatant was then transferred to a polystyrene 384-well assay plate. Hemolysis was determined by measuring the supernatant absorbance at […] (OD405). The absorbance was measured using a Tecan M1000 Pro monochromator plate reader. HC10 and HC50 (concentration at 10% and 50% hemolysis, respectively) were calculated by curve fitting the inhibition values vs. log (concentration) using a sigmoidal dose–response function with variable fitting values for top, bottom and slope.

[7] = test system: Staphylococcus aureus ATCC 25923 or ATCC 29213; test: MIC, broth dilution (CA-SFM); format: cell-based; conditions: Staphylococcus aureus ATCC 25923 or ATCC 29213; mean (n = 3); read-out: MIC S. a
[8] = Cytotoxicity assay (resazurin); format: cell-based, human; conditions: human; HEK293 cells; mean (n = 2); highest dose tested 32 μg/mL; read-out: Cytotoxicity (concentration of compound at 50% cytotoxicity, IC50)
[9] = ATCC208821, Cryptococcus neoformans ATCC208821, mean (n = 2)

Row | MIC [1] | MIC [2] | MIC [3] | MIC (MRSA ATCC 43300) | MIC [4, 9] | MIC [5] | MIC ([6]; 18 h) | melting point | MIC [7] | MIC [6] | MIC ([4]; ATCC208821, 36 h, Cryptococcus neoformans ATCC208821, mean (n = 2)) | MIC ([5]; 36 h) | SMILES | Hemolysis (HC10, concentration at 10% hemolytic activity) (human red blood cells) | IC50 at 20 h [8]
1 | 25 µM | 32 µM | 0.5 µM | < 0.25 µM | 32 µM | 8 µM | – | – | 3.12 µM | 4 µM | – | – | O=C(CC(c1ccccc1)(c1ccccc1)c1ccccc1)NCCCNCCCCNCCCNC(=O)CC(c1ccccc1)(c1ccccc1)c1ccccc1.O=C(O)C(F)(F)F.O=C(O)C(F)(F)F [Compound 18a, N^1,N^4-Bis(3-(3,3,3-triphenylpropanamido)propyl)butane-1,4-diaminium 2,2,2-trifluoroacetate] | 1.58 µM | 18.3 µM
2 | 50 µM | 31.2 µM | 0.97 µM | < 0.24 µM | 31.2 µM | 7.79 µM | – | – | 1.56 µM | 7.8 µM | – | – | O=C(CC(c1ccccc1)(c1ccccc1)c1ccccc1)NCCCNCCCCCCNCCCNC(=O)CC(c1ccccc1)(c1ccccc1)c1ccccc1.O=C(O)C(F)(F)F.O=C(O)C(F)(F)F [Compound 18b, N^1,N^6-Bis(3-(3,3,3-triphenylpropanamido)propyl)hexane-1,6-diaminium 2,2,2-trifluoroacetate] | 0.985 µM | 15.7 µM
3 | 100 µM | 30.7 µM | 3.84 µM | < 0.24 µM | 30.7 µM | 3.84 µM | – | – | 1.56 µM | 1.92 µM | – | – | O=C(CC(c1ccccc1)(c1ccccc1)c1ccccc1)NCCCNCCCCCCCNCCCNC(=O)CC(c1ccccc1)(c1ccccc1)c1ccccc1.O=C(O)C(F)(F)F.O=C(O)C(F)(F)F [Compound 18c, N^1,N^7-Bis(3-(3,3,3-triphenylpropanamido)propyl)heptane-1,7-diaminium 2,2,2-trifluoroacetate] | 3.12 µM | 13.2 µM
4 | 200 µM | > 30.3 µM | 7.58 µM | < 0.24 µM | 7.6 µM | < 0.24 µM | – | – | 3.12 µM | 7.6 µM | – | – | O=C(CC(c1ccccc1)(c1ccccc1)c1ccccc1)NCCCNCCCCCCCCNCCCNC(=O)CC(c1ccccc1)(c1ccccc1)c1ccccc1.O=C(O)C(F)(F)F.O=C(O)C(F)(F)F [Compound 18d, N^1,N^8-Bis(3-(3,3,3-triphenylpropanamido)propyl)octane-1,8-diaminium 2,2,2-trifluoroacetate] | 3.17 µM | 9.7 µM
5 | 200 µM | > 29.5 µM | > 29.5 µM | < 0.23 µM | < 0.23 µM | < 0.23 µM | – | – | 1.56 µM | < 0.23 µM | – | – | O=C(CC(c1ccccc1)(c1ccccc1)c1ccccc1)NCCCNCCCCCCCCCCNCCCNC(=O)CC(c1ccccc1)(c1ccccc1)c1ccccc1.O=C(O)C(F)(F)F.O=C(O)C(F)(F)F [Compound 18e, N^1,N^10-Bis(3-(3,3,3-triphenylpropanamido)propyl)decane-1,10-diaminium 2,2,2-trifluoroacetate] | ≤0.231 µM | 7.23 µM
6 | 300 µM | > 28.8 µM | > 28.8 µM | < 0.22 µM | – | – | – | – | 25 µM | > 28.8 µM | < 0.23 µM | < 0.23 µM | O=C(CC(c1ccccc1)(c1ccccc1)c1ccccc1)NCCCNCCCCCCCCCCCCNCCCNC(=O)CC(c1ccccc1)(c1ccccc1)c1ccccc1.O=C(O)C(F)(F)F.O=C(O)C(F)(F)F [Compound 18f, N^1,N^12-Bis(3-(3,3,3-triphenylpropanamido)propyl)dodecane-1,12-diaminium 2,2,2-trifluoroacetate] | ≤0.225 µM | 0.409 µM

The next lines start with the molecule.

Row | SMILES | MIC [1] | MIC [2] | MIC [3] | MIC (MRSA ATCC 43300) | MIC [4, 9] | MIC [5] | MIC ([6]; 18 h) | melting point | MIC [7] | MIC [6] | MIC ([4]; ATCC208821, 36 h, Cryptococcus neoformans ATCC208821, mean (n = 2)) | MIC ([5]; 36 h) | Hemolysis (HC10, concentration at 10% hemolytic activity) (human red blood cells) | IC50 at 20 h [8]
7 | Cl.Cl.S=C(NCCCNCCCCNCCCNC(=S)NC(c1ccccc1)c1ccccc1)NC(c1ccccc1)c1ccccc1 [Compound 6a, N^1,N^4-Bis(3-(3-benzhydrylthioureido)propyl)butane-1,4-diaminium chloride] | 138 µM | > 44.1 µM | 2.8 µM | ≤ 0.34 µM | 11 µM | ≤ 0.34 µM | ≤ 0.35 µM | 168 to 169 °C | > 276 µM | – | – | – | 7.73 µM | > 44.1 µM
8 | Cl.Cl.S=C(NCCCNCCCCCCCNCCCNC(=S)NC(c1ccccc1)c1ccccc1)NC(c1ccccc1)c1ccccc1 [Compound 6c, N^1,N^7-Bis(3-(3-benzhydrylthioureido)propyl)heptane-1,7-diaminium chloride] | > 260 µM | > 41.7 µM | ≤ 0.33 µM | ≤ 0.33 µM | 0.65 µM | ≤ 0.33 µM | – | 115 to 116 °C | 65 µM | 2.6 µM | – | – | ≤0.326 µM | > 41.7 µM
9 | Cl.Cl.S=C(NCCCNCCCCCCCCNCCCNC(=S)NC(c1ccccc1)c1ccccc1)NC(c1ccccc1)c1ccccc1 [Compound 6d, N^1,N^8-Bis(3-(3-benzhydrylthioureido)propyl)octane-1,8-diaminium chloride] | 100 µM | 40.9 µM | ≤ 0.32 µM | ≤ 0.32 µM | 20.5 µM | ≤ 0.32 µM | – | 113 to 115 °C | 6.25 µM | 5.1 µM | – | – | 2.07 µM | 10.1 µM
10 | Cl.Cl.S=C(NCCCNCCCCCCCCCCCCNCCCNC(=S)NC(c1ccccc1)c1ccccc1)NC(c1ccccc1)c1ccccc1 [Compound 6f, N^1,N^12-Bis(3-(3-benzhydrylthioureido)propyl)dodecane-1,12-diaminium chloride] | 120 µM | > 38.2 µM | 2.4 µM | ≤ 0.3 µM | > 38.2 µM | ≤ 0.3 µM | – | 103 to 104 °C | > 239 µM | > 38.2 µM | – | – | >38.2 µM | ≤ 0.298 µM
11 | O=C(O)CCC(=O)NCCCc1ccccc1 [Compound 8, 4-oxo-4-((3-phenylpropyl)amino)butanoic acid] | – | – | – | – | – | – | – | 94 to 95 °C | – | – | – | – | – | –
12 | O=C(O)CCC(=O)NCCC(c1ccccc1)c1ccccc1 [Compound 10, 4-((3,3-diphenylpropyl)amino)-4-oxobutanoic acid] | – | – | – | – | – | – | – | 134 to 137 °C | – | – | – | – | – | –
13 | O=C(NCCCNCCCCCCCCCCNCCCNC(=O)C(c1ccccc1)(c1ccccc1)c1ccccc1)C(c1ccccc1)(c1ccccc1)c1ccccc1.O=C(O)C(F)(F)F.O=C(O)C(F)(F)F [Compound 17e, N^1,N^10-Bis(3-(2,2,2-triphenylacetamido)propyl)decane-1,10-diaminium 2,2,2-trifluoroacetate] | 300 µM | > 30.3 µM | < 0.23 µM | < 0.23 µM | < 0.23 µM | > 30.3 µM | – | – | 3.12 µM | > 30.3 µM | – | – | ≤0.234 µM | > 30.3 µM
14 | O=C(NCCCNCCCCCCCCCCCCNCCCNC(=O)C(c1ccccc1)(c1ccccc1)c1ccccc1)C(c1ccccc1)(c1ccccc1)c1ccccc1.O=C(O)C(F)(F)F.O=C(O)C(F)(F)F [Compound 17f, N^1,N^12-Bis(3-(2,2,2-triphenylacetamido)propyl)dodecane-1,12-diaminium 2,2,2-trifluoroacetate] | 300 µM | > 29.5 µM | > 29.5 µM | < 0.23 µM | < 0.23 µM | < 0.23 µM | – | – | 6.25 µM | > 29.5 µM | – | – | ≤0.231 µM | ≤ 0.231 µM
